This series in a line: Urinary excretion and metabolite patterns in blood and urine. Format: in vivo, rat. The conditions noted are these: for Urinary excretion of parent drug: underestimates (urine lost). The procedure:
Metabolite patters were determined in blood extracts and in urine. Blood was pooled from the 3 intravenously dosed rats of the pharmacokinetic study and from 3 additional rats treated in the same way. Urine was obtained from the animals of the pharmacokinetic study.
Between 0.3 and 0.6 mL of pooled diluted blood were spiked with 10-20 μg unlabeled compound 42-ch, extracted with 10 mL of methanol (HPLC grade, Rathburn) by sonication and centrifuged. The pellet was extracted once more in the same way. The two supernatants were combined and evaporated under reduced pressure at 35° C. on a rotary evaporator. The residue was transferred into a smaller vial by means of methanol and water, evaporated under a stream of nitrogen and taken up in 80 μl methanol and 320 μl water or in 120 μl methanol and 280 μl water by sonication. The suspension was centrifuged and a 300 μl aliquot of the supernatant was injected onto the HPLC column. The extraction yield of radioactivity was only 45±12% (mean ISD).
To urine samples, acetonitrile (˜5% v/v), TFA (to obtain a pH of ˜3) and unlabeled compound 42-ch (˜4 μg per volume analyzed) were added. The mixtures were centrifuged and 1-2 mL of supernatant were injected onto the HPLC column.
The chromatography was performed using HP 1090 liquid chromatograph (Hewlett-Packard). The radioactivity of the column eluate was measured by liquid scintillation counting either off-line or on-line using a Berthold LB 507A radioactivity monitor. The samples were chromatographed on a reversed-phase column (Nucleosil 100, C18AB, 250×4.6 mm, 5 μm particle size, Macherey-Nagel) protected by a corresponding 8×4 mm precolumn. The column temperature was 40° C. The components were eluted with a gradient of 0.02% v/v trifluoroacetic acid (TFA, Pierce) in water (mobile phase A, pH 2.8) versus acetonitrile (HPLC grade S, Rathburn; mobile phase B). The proportion of solvent B was kept at 5% up to 5 minutes after injection and was then increased in linear segments to 40% at 110 minutes and 100% at 120 minutes where it was kept for another 10 minutes. The total flow rate was 1 mL/min. The unlabeled parent drug, added as a retention time marker, was monitored by UV detection at 216 nm.

Molecules are shown by their SMILES. Where “and” joins values, the source holds several entries; their conditions need not be identical. Equal entries are not always repeated.

Take `N#Cc1cc(S(=O)(=O)N2C(=O)N(CCCCCN)C(=O)C2Cc2c[nH]c3ccccc23)ccc1Oc1ccc(N)cc1` (centres unmarked) [Compound 42]: the “Urinary excretion of parent drug” value is 0.96 % of dose and 1.98 % of dose and 1.97 % of dose (0-48 hours after single intravenous 1 mg/kg [^14C]-42, individual animals, 1 mg/kg); 1.64 % of dose (0-48 hours after single intravenous 1 mg/kg [^14C]-42, mean of 3 animals); 0.001 % of dose and 0.053 % of dose and 0.114 % of dose (0-48 hours after single oral 10 mg/kg [^14C]-42, individual animals, 10 mg/kg); 0.056 % of dose (0-48 hours after single oral 10 mg/kg [^14C]-42, mean of 3 animals). For the same compound, the “drug-related material in blood” value (rat blood extracts after intravenous dosing) is listed as “mainly of unchanged drug”.

(Values after patent US20040019092A1, “Non-peptide somatostatin receptor ligands” (priority 2001, published 2004).)
